Source: ChEMBL document CHEMBL5150052, “Riboflavin-Promoted In Situ Photoactivation of Dihydroalkaloid Prodrugs for Cancer Therapy” (J Med Chem, 2022)
The source made the active and inactive calls. No cut-off for these calls is given here.

Key:
[1] = Photooxidative transformation of DHCHE assessed as decrease in DHCHE peak under blue light 450 nm/20 mW/cm^-2 irradiation at 0.1 mg/ml from 0 to 20 mins by NMR spectra analysis; type: functional; conditions: time 0-20 min
[2] = system: A-375; assay: In vivo antitumor activity against human A-375 cells xenografted in mouse model assessed as potentiation of DHCHE-mediated anticancer activity by measuring increase in caspase 3 expression at 1 mg/kg administered intratumoral injection for 14 days by […]; type: functional, organism-based; conditions: route it(Intratumoral), time 14.0 day
[3] = system: A-375; assay: In vivo antitumor activity against human A-375 cells xenografted in mouse model assessed as potentiation of DHCHE-mediated anticancer activity by measuring decrease in Ki-67 expression at 1 mg/kg administered intratumoral injection for 14 days by […]; type: functional, organism-based; conditions: route it(Intratumoral), time 14.0 day
[4] = system: A-375; assay: Photooxidative transformation of DHCHE in human A-375 cells assessed as increase in red fluorescence in nucleus under blue light 450 nm/20 mW/cm^-2 irradiation at 10 uM after 1 min by confocal laser scanning microscopy; type: ADME, cell-based; conditions: a-375, 1 min
[5] = system: A-375; assay: Potentiation of DHNIT-mediated anticancer activity against human A-375 cells assessed as cell killing under blue light 450 nm/20 mW/cm^-2 irradiation at 10 uM after 10 min by MTT assay; type: functional, cell-based
[6] = Photooxidative transformation of DHNIT assessed as increase in generation of NIT under blue light 450 nm/20 mW/cm^-2 irradiation at 10 uM by UV-vis absorption spectra analysis; type: functional
[7] = system: A-375; assay: Potentiation of DHNIT-mediated apoptosis activity against human A-375 cells assessed as cell killing under blue light 450 nm/20 mW/cm^-2 irradiation at 10 uM after 30 min by CLSM imaging method; type: functional, cell-based
[8] = Photooxidative transformation of DHCHE assessed as decrease in DHCHE peak under blue light 450 nm/20 mW/cm^-2 irradiation at 0.1 mg/ml from 0 to 20 mins by HRMS spectra analysis; type: functional; conditions: time 0-20 min
[9] = system: A-375; assay: Potentiation of DHCHE-mediated apoptosis activity against human A-375 cells assessed as decrease in Bcl2 gene expression under blue light 450 nm/20 mW/cm^-2 irradiation at 10 uM after 10 min by quantitative reverse transcription PCR analysis; type: functional, cell-based
[10] = Toxicity in human A-375 cells xenografted in mouse model assessed as changes in AST in presence of DHCHE under blue light 450 nm/20 mW/cm^-2 irradiation at 1 mg/kg administered intratumoral injection for 14 days by […]; type: organism-based; conditions: in vivo, other, 336 h, route it(Intratumoral), time 14 day
[11] = Toxicity in human A-375 cells xenografted in mouse model assessed as change in body weight in presence of DHCHE under blue light 450 nm/20 mW/cm^-2 irradiation at 1 mg/kg administered intratumoral injection for 14 days; type: organism-based; conditions: in vivo, other, 336 h, route it(Intratumoral), time 14 day
[12] = system: A-375; assay: Potentiation of DHSAN-mediated anticancer activity against human A-375 cells assessed as cell killing under blue light 450 nm/20 mW/cm^-2 irradiation at 10 uM after 10 min by MTT assay; type: functional, cell-based
[13] = Toxicity in human A-375 cells xenografted in mouse model assessed as changes in ALT in presence of DHCHE under blue light 450 nm/20 mW/cm^-2 irradiation at 1 mg/kg administered intratumoral injection for 14 days by […]; type: organism-based; conditions: in vivo, other, 336 h, route it(Intratumoral), time 14 day
[14] = Toxicity in human A-375 cells xenografted in mouse model assessed as changes in total protein in presence of DHCHE under blue light 450 nm/20 mW/cm^-2 irradiation at 1 mg/kg administered intratumoral injection for 14 days by […]; type: organism-based; conditions: in vivo, other, 336 h, route it(Intratumoral), time 14 day
[15] = Toxicity in human A-375 cells xenografted in mouse model assessed as inflammation lesions in intestine in presence of DHCHE under blue light 450 nm/20 mW/cm^-2 irradiation at 1 mg/kg administered intratumoral injection for 14 days by H and E staining based assay; type: organism-based; conditions: in vivo, other, 336 h, route it(Intratumoral), time 14 day
[16] = system: A-375; assay: Potentiation of DHSAN-mediated apoptosis activity against human A-375 cells assessed as cell killing under blue light 450 nm/20 mW/cm^-2 irradiation at 10 uM after 30 min by CLSM imaging method; type: functional, cell-based
[17] = system: A-375; assay: In vivo antitumor activity against human A-375 cells xenografted in mouse model assessed as potentiation of DHCHE-mediated anticancer activity by measuring increase in vacuole and condensed nuclei at 1 mg/kg administered intratumoral injection for 14 days by […]; type: functional, organism-based; conditions: route it(Intratumoral), time 14.0 day
[18] = system: A-375; assay: In vivo antitumor activity against human A-375 cells xenografted in mouse model assessed as potentiation of DHCHE-mediated tumor growth inhibition under blue light 450 nm/20 mW/cm^-2 irradiation at 1 mg/kg administered intratumoral injection for 14 days; type: functional, organism-based; conditions: route it(Intratumoral), time 14.0 day
[19] = Toxicity in human A-375 cells xenografted in mouse model assessed as inflammation lesions in liver in presence of DHCHE under blue light 450 nm/20 mW/cm^-2 irradiation at 1 mg/kg administered intratumoral injection for 14 days by H and E staining based assay; type: organism-based; conditions: in vivo, other, 336 h, route it(Intratumoral), time 14 day
[20] = Toxicity in human A-375 cells xenografted in mouse model assessed as changes in BUN in presence of DHCHE under blue light 450 nm/20 mW/cm^-2 irradiation at 1 mg/kg administered intratumoral injection for 14 days by […]; type: organism-based; conditions: in vivo, other, 336 h, route it(Intratumoral), time 14 day
[21] = system: A-375; assay: Potentiation of DHCHE-mediated apoptosis activity against human A-375 cells assessed as increase in P53 gene expression under blue light 450 nm/20 mW/cm^-2 irradiation at 10 uM after 10 min by quantitative reverse transcription PCR analysis; type: functional, cell-based
[22] = Toxicity in human A-375 cells xenografted in mouse model assessed as inflammation lesions in spleen in presence of DHCHE under blue light 450 nm/20 mW/cm^-2 irradiation at 1 mg/kg administered intratumoral injection for 14 days by H and E staining based assay; type: organism-based; conditions: in vivo, other, 336 h, route it(Intratumoral), time 14 day
[23] = system: A-375; assay: Potentiation of DHCHE-mediated apoptosis activity against human A-375 cells assessed as increase in Bax gene expression under blue light 450 nm/20 mW/cm^-2 irradiation at 10 uM after 10 min by quantitative reverse transcription PCR analysis; type: functional, cell-based
[24] = system: A-375; assay: Potentiation of DHCHE-mediated apoptosis activity against human A-375 cells assessed as increase in Caspase 3 gene expression under blue light 450 nm/20 mW/cm^-2 irradiation at 10 uM after 10 min by quantitative reverse transcription PCR analysis; type: functional, cell-based
[25] = Photooxidative transformation of DHSAN assessed as increase in generation of SAN under blue light 450 nm/20 mW/cm^-2 irradiation at 10 uM by UV-vis absorption spectra analysis; type: functional
[26] = Photooxidative transformation of DHCHE assessed as decrease in DHCHE peak under blue light 450 nm/20 mW/cm^-2 irradiation at 0.1 mg/ml by HPLC analysis (reference value: 82.7%); type: functional; design: scale not given: the % may be the effect or the level left
[27] = system: A-375; assay: Potentiation of DHCHE-mediated apoptosis activity against human A-375 cells assessed as cell killing under blue light 450 nm/20 mW/cm^-2 irradiation at 10 uM after 30 min by CLSM imaging method; type: functional; conditions: 0.5 h
[28] = Photooxidative transformation of DHCHE assessed as increase in generation of CHE under blue light 450 nm/20 mW/cm^-2 irradiation at 10 uM by UV-vis absorption spectra analysis; type: functional
[29] = Toxicity in human A-375 cells xenografted in mouse model assessed as inflammation lesions in kidney in presence of DHCHE under blue light 450 nm/20 mW/cm^-2 irradiation at 1 mg/kg administered intratumoral injection for 14 days by H and E staining based assay; type: organism-based; conditions: in vivo, other, 336 h, route it(Intratumoral), time 14 day
[30] = system: A-375; assay: Potentiation of DHCHE-mediated anticancer activity against human A-375 cells assessed as cell killing under blue light 450 nm/20 mW/cm^-2 irradiation at 10 uM after 10 min by MTT assay; type: functional, cell-based
[31] = Toxicity in human A-375 cells xenografted in mouse model assessed as inflammation lesions in lung in presence of DHCHE under blue light 450 nm/20 mW/cm^-2 irradiation at 1 mg/kg administered intratumoral injection for 14 days by H and E staining based assay; type: organism-based; conditions: in vivo, other, 336 h, route it(Intratumoral), time 14 day
[32] = Toxicity in human A-375 cells xenografted in mouse model assessed as inflammation lesions in heart in presence of DHCHE under blue light 450 nm/20 mW/cm^-2 irradiation at 1 mg/kg administered intratumoral injection for 14 days by H and E staining based assay; type: organism-based; conditions: in vivo, other, 336 h, route it(Intratumoral), time 14 day

Drug metabolism [4]: Metabolite_Detected
Compound: Cc1cc2nc3c(=O)[nH]c(=O)nc-3n(C[C@H](O)[C@H](O)[C@H](O)CO)c2cc1C [RIBOFLAVIN]
Drug metabolism [1]: Metabolite detected
Activity [2]: Active
Activity [3]: Active
Activity [5]: Active
Drug metabolism [6]: Metabolite detected
Activity [7]: Active
Drug metabolism [8]: Metabolite detected
Activity [9]: Active
Activity [10]: Non-Toxic
Activity [11]: Non-Toxic
Activity [12]: Active
Activity [13]: Non-Toxic
Activity [14]: Non-Toxic
Activity [15]: Non-Toxic
Activity [16]: Active
Activity [17]: Active
Activity [18]: Active
Activity [19]: Non-Toxic
Activity [20]: Non-Toxic
Activity [21]: Active
Activity [22]: Non-Toxic
Activity [23]: Active
Activity [24]: Active
Drug metabolism [25]: Metabolite detected
Activity [26]: 11.2%
Activity [27]: 61.7%
Drug metabolism [28]: Metabolite detected
Activity [29]: Non-Toxic
Activity [30]: Active
Activity [31]: Non-Toxic
Activity [32]: Non-Toxic
